Data taken from ChEMBL document CHEMBL1133295, “Towards enzyme activated antiprostatic agents” (Bioorg Med Chem Lett, 2000).

Experiments:
Format in all cases: functional, cell-based
Conditions in all cases: Homo sapiens
LNCaP [1] = assay: The compound was evaluated for cytotoxicity by assessing 3H thymidine uptake in LNCaP cell line
MCF7 = assay: The compound was evaluated for cytotoxicity by assessing 3H thymidine uptake in MCF-7 cell line
HEK293 [2] = assay: The compound was evaluated for cytotoxicity by assessing 3H thymidine uptake in HEK293 cell line
LNCaP [3] = assay: The compound was evaluated for cytotoxicity by assessing 3H thymidine uptake in LNCaP cell line in presence of PSA (1 ug)
HEK293 [4] = assay: The compound was evaluated for cytotoxicity by assessing 3H thymidine uptake in HEK293 cell line in presence of PSA (1 ug)

Compound | IC50 (LNCaP [1]) [µM] | IC50 (MCF7) [µM] | IC50 (HEK293 [2]) [µM] | IC50 (LNCaP [3]) [µM] | IC50 (HEK293 [4]) [µM]
CC(C)(C)OC(=O)N[C@@H](Cc1ccc(O)cc1)C(=O)Nc1ccc(COC(=O)N(CCO)CCO)cc1 | > 500 | > 900 | > 600 | – | –
N[C@@H](Cc1ccc(O)cc1)C(=O)Nc1ccc(COC(=O)N(CCCl)CCCl)cc1 | 33 | > 900 | 176 | 34 | 173
